How the values were obtained:
[1] = test system: Botryotinia fuckeliana (Botrytis cinerea); assay: Liquid-culture fungal growth inhibition test; assay type: cell-based
Sclerotinia sclerotiorum = assay: Liquid-culture fungal growth inhibition test; assay type: cell-based
Plasmopara viticola = assay: Leaf disk test at different concentrations, grapevine; assay type: in vivo; details: preventative, disease control relative to untreated check
Phytophthora infestans [2] = assay type: in vivo; details: 200 ppm
Pythium ultimum = assay: Liquid-culture fungal growth inhibition test; assay type: cell-based; details: antifungal activity relative to untreated check, photometric, 2-7 days
[3] = test system: Monographella nivalis (Microdochium nivale); assay: Liquid-culture fungal growth inhibition test; assay type: cell-based
[4] = test system: Phaeosphaeria nodorum (Septoria nodorum); assay: Leaf disk test at different concentrations, wheat; assay type: in vivo; details: preventative, disease control relative to untreated check
mice = details: cited from earlier work
Botryotinia fuckeliana = assay type: cell-based; details: 20 ppm
HeLa cells = details: cited from earlier work
[5] = test system: Thanatephorus cucumeris (Rhizoctonia solani); assay: Liquid-culture fungal growth inhibition test; assay type: cell-based
Puccinia recondita = assay: Leaf disk test at different concentrations, wheat; assay type: in vivo; details: for Leaf-piece test rates (20 ppm), efficacy / Leaf-piece test rates (60 ppm), efficacy / Leaf-piece test rates (200 ppm), efficacy: wheat, disease control relative to untreated check
Zymoseptoria tritici [6] = assay: Liquid-culture fungal growth inhibition test; assay type: cell-based
Alternaria solani [7] = assay type: cell-based; details: 20 ppm
Pythium dissimile = assay type: cell-based; details: 20 ppm
Alternaria solani [8] = assay: Leaf disk test at different concentrations, tomato; assay type: in vivo; details: preventative, disease control relative to untreated check
Phytophthora infestans [9] = assay type: in vivo; details: tomato, preventative, disease control relative to untreated check
Pyrenophora teres = assay: Leaf disk test at different concentrations, barley; assay type: in vivo; details: preventative, disease control relative to untreated check
[10] = test system: Blumeria graminis f. sp. tritici (Erysiphe graminis); assay: Leaf disk test at different concentrations, wheat; assay type: in vivo; details: preventative, disease control relative to untreated check
[11] = test system: Glomerella lagenarium (Colletotrichum lagenarium); assay: Liquid-culture fungal growth inhibition test; assay type: cell-based
Gaeumannomyces graminis = assay: Liquid-culture fungal growth inhibition test; assay type: cell-based
Gibberella zeae = assay type: cell-based; details: 20 ppm
Uromyces viciae-fabae = assay type: in vivo; details: 100 ppm
Zymoseptoria tritici [12] = assay type: in vivo; details: 100 ppm
Fusarium culmorum = assay: Liquid-culture fungal growth inhibition test; assay type: cell-based; details: antifungal activity relative to untreated check, photometric, 2-7 days
Protocol: Suspensions of mycelial fragments or conidia of a fungal species, prepared either freshly from liquid cultures of the fungus or from cryogenic storage, were directly mixed into nutrient broth. DMSO solutions of Ilicicolin H (max. 10 mg/ml) were diluted with 0.025% Tween 20 by a factor of 50, and 10μ L of this solution was pipetted into a microtitre plate (96-well format). The nutrient broth containing the fungal spores/mycelia fragments was then added to give a final concentration of Ilicicolin H. The test plates were incubated in the dark at 24° C. and 96% relative humidity. The inhibition of fungal growth was determined photometrically after 2-7 days, depending on the pathosystem, and percent antifungal activity relative to the untreated check was calculated.

[13] = test system: Magnaporthe grisea (Pyricularia oryzae); assay type: in vivo; details: rice, preventative, disease control relative to untreated check
[14] = test system: Mycosphaerella arachidis (Cercospora arachidicola); assay: Liquid-culture fungal growth inhibition test; assay type: cell-based
[15] = 0.2 ppm, antifungal activity relative to untreated check, photometric, 2-7 days
[16] = 2 ppm, antifungal activity relative to untreated check, photometric, 2-7 days
[17] = 20 ppm, antifungal activity relative to untreated check, photometric, 2-7 days

C/C=C/[C@H]1C(C(=O)c2c(O)c(-c3ccc(O)cc3)c[nH]c2=O)C=C(C)[C@H]2CC[C@H](C)C[C@@H]21 (stereo partly shown) [Ilicicolin H]
49: Disease control efficacy (average of two repeat experiments) (Uromyces viciae-fabae)
low acute toxicity: acute toxicity (mice)
70%: Liquid-culture test rates (2 ppm), efficacy [1, 16] | Liquid-culture test rates (20 ppm), efficacy [5, 17]
active: activity in leaf-piece assay (Phytophthora infestans [2]; tomato) | activity in mycelial growth test (Botryotinia fuckeliana) | activity in leaf-piece assay (Zymoseptoria tritici [12])
active in one rep: activity in leaf-piece assay (Uromyces viciae-fabae)
not active: activity in mycelial growth test (Alternaria solani [7]) | activity in mycelial growth test (Pythium dissimile) | activity in mycelial growth test (Gibberella zeae)
90%: Leaf-piece test rates (200 ppm), efficacy (Puccinia recondita; preventative) | Liquid-culture test rates (0.2 ppm), efficacy (Zymoseptoria tritici [6]; [15]) | Liquid-culture test rates (2 ppm), efficacy (Gaeumannomyces graminis; [16])
0: Disease control efficacy (average of two repeat experiments) (Alternaria solani [7]) | Disease control efficacy (average of two repeat experiments) (Pythium dissimile) | Disease control efficacy (average of two repeat experiments) (Gibberella zeae; artificial media, visual 3 band score, 4 to 14 days after inoculation)
demonstrated activity: activity in liquid-culture test [1] | activity in liquid-culture test (Sclerotinia sclerotiorum) | activity in liquid-culture test [3] | activity in liquid-culture test [5] | activity in leaf disk test (Puccinia recondita; wheat leaf disks) | activity in liquid-culture test (Zymoseptoria tritici [6]) | activity in liquid-culture test [11] | activity in liquid-culture test (Gaeumannomyces graminis) | activity in liquid-culture test [14]
99: Disease control efficacy (average of two repeat experiments) (Phytophthora infestans [2]; tomato leaf piece, applied prior to inoculation, visual 3 band score) | Disease control efficacy (average of two repeat experiments) (Botryotinia fuckeliana) | Disease control efficacy (average of two repeat experiments) (Zymoseptoria tritici [12])
0%: Liquid-culture test rates (0.2 ppm), efficacy [1, 15] | Liquid-culture test rates (0.2 ppm), efficacy (Sclerotinia sclerotiorum; [15]) | Leaf-piece test rates (20 ppm), efficacy (Plasmopara viticola; 20 ppm) | Leaf-piece test rates (60 ppm), efficacy (Plasmopara viticola; 60 ppm) | Leaf-piece test rates (200 ppm), efficacy (Plasmopara viticola; 200 ppm) | Liquid-culture test rates (0.2 ppm), efficacy (Pythium ultimum; 0.2 ppm) | Liquid-culture test rates (2 ppm), efficacy (Pythium ultimum; 2 ppm) | Liquid-culture test rates (20 ppm), efficacy (Pythium ultimum; 20 ppm) | Liquid-culture test rates (0.2 ppm), efficacy [3, 15] | Leaf-piece test rates (20 ppm), efficacy ([4]; 20 ppm) | Leaf-piece test rates (60 ppm), efficacy ([4]; 60 ppm) | Leaf-piece test rates (200 ppm), efficacy ([4]; 200 ppm) | Liquid-culture test rates (0.2 ppm), efficacy [5, 15] | Leaf-piece test rates (20 ppm), efficacy (Puccinia recondita; curative) | Leaf-piece test rates (20 ppm), efficacy (Puccinia recondita; preventative) | Leaf-piece test rates (60 ppm), efficacy (Puccinia recondita; curative) | Leaf-piece test rates (200 ppm), efficacy (Puccinia recondita; curative) | Leaf-piece test rates (20 ppm), efficacy (Alternaria solani [8]; 20 ppm) | Leaf-piece test rates (60 ppm), efficacy (Alternaria solani [8]; 60 ppm) | Leaf-piece test rates (200 ppm), efficacy (Alternaria solani [8]; 200 ppm) | Leaf-piece test rates (20 ppm), efficacy (Phytophthora infestans [9]; 20 ppm) | Leaf-piece test rates (60 ppm), efficacy (Phytophthora infestans [9]; 60 ppm) | Leaf-piece test rates (200 ppm), efficacy (Phytophthora infestans [9]; 200 ppm) | Leaf-piece test rates (20 ppm), efficacy (Pyrenophora teres; 20 ppm) | Leaf-piece test rates (60 ppm), efficacy (Pyrenophora teres; 60 ppm) | Leaf-piece test rates (200 ppm), efficacy (Pyrenophora teres; 200 ppm) | Leaf-piece test rates (20 ppm), efficacy ([10]; 20 ppm) | Leaf-piece test rates (60 ppm), efficacy ([10]; 60 ppm) | Leaf-piece test rates (200 ppm), efficacy ([10]; 200 ppm) | Liquid-culture test rates (0.2 ppm), efficacy [11, 15] | Liquid-culture test rates (0.2 ppm), efficacy (Gaeumannomyces graminis; [15]) | Liquid-culture test rates (0.2 ppm), efficacy (Fusarium culmorum; 0.2 ppm) | Liquid-culture test rates (2 ppm), efficacy (Fusarium culmorum; 2 ppm) | Liquid-culture test rates (20 ppm), efficacy (Fusarium culmorum; 20 ppm) | Leaf-piece test rates (20 ppm), efficacy ([13]; 20 ppm) | Leaf-piece test rates (60 ppm), efficacy ([13]; 60 ppm) | Leaf-piece test rates (200 ppm), efficacy ([13]; 200 ppm) | Liquid-culture test rates (0.2 ppm), efficacy [14, 15]
20%: Liquid-culture test rates (2 ppm), efficacy (Sclerotinia sclerotiorum; [16])
2 µg/mL: ED50 (cytotoxicity) (HeLa cells)
100%: Liquid-culture test rates (20 ppm), efficacy [1, 17] | Liquid-culture test rates (2 ppm), efficacy [3, 16] | Liquid-culture test rates (20 ppm), efficacy [3, 17] | Liquid-culture test rates (2 ppm), efficacy (Zymoseptoria tritici [6]; [16]) | Liquid-culture test rates (20 ppm), efficacy (Zymoseptoria tritici [6]; [17]) | Liquid-culture test rates (20 ppm), efficacy [11, 17] | Liquid-culture test rates (20 ppm), efficacy (Gaeumannomyces graminis; [17]) | Liquid-culture test rates (2 ppm), efficacy [14, 16] | Liquid-culture test rates (20 ppm), efficacy [14, 17]
50%: Liquid-culture test rates (20 ppm), efficacy (Sclerotinia sclerotiorum; [17]) | Liquid-culture test rates (2 ppm), efficacy [5, 16] | Leaf-piece test rates (60 ppm), efficacy (Puccinia recondita; preventative) | Liquid-culture test rates (2 ppm), efficacy [11, 16]

Source: US10412965B2, “Use of the antifungal ilicicolin H in agriculture” (AGROBIOLOGICS, LLC, priority 2015, dated 2019)
